Here are results for two molecules from US8865759B2, “Use of dithiine-tetracarboximides for controlling phytopathogenic fungi” (priority 2008, dated 2014).

The data set in a line: logP determination by HPLC on reversed-phase column (C 18), EEC Directive 79/831 Annex V.A8. Type of data set: physicochemical. The note with it: reversed-phase C 18, 43° C., acidic range pH 2.7, 0.1% aqueous formic acid/acetonitrile.

On to `COCCn1c(=O)c2sc3c(=O)n(CCOC)c(=O)c3sc2c1=O` [Compound 12, 2,6-Bis(2-methoxyethyl)-1H,5H-[1,4]dithiino[2,3-c:5,6-c]dipyrrole-1,3,5,7(2H,6H)-tetrone], for which the “log P” value was “log P = 2.55”.

As for `CC(C(=O)O)n1c(=O)c2sc3c(=O)n(C(C)C(=O)O)c(=O)c3sc2c1=O` (centres unmarked) [Compound 24, 2,2′-(1,3,5,7-Tetraoxo-1,3,5,7-tetrahydro-2H,6H-[1,4]dithiino[2,3-c:5,6-c]dipyrrole-2,6-diyl)dipropanoic acid], the “log P” value is “log P = 1.76”.
